Read-outs that look alike come from different tables or passages of the source.

In the assay the target is T1, 5-HT1A receptors (Rattus norvegicus, UniProt P19327).
T1 sequence (P19327 1-422): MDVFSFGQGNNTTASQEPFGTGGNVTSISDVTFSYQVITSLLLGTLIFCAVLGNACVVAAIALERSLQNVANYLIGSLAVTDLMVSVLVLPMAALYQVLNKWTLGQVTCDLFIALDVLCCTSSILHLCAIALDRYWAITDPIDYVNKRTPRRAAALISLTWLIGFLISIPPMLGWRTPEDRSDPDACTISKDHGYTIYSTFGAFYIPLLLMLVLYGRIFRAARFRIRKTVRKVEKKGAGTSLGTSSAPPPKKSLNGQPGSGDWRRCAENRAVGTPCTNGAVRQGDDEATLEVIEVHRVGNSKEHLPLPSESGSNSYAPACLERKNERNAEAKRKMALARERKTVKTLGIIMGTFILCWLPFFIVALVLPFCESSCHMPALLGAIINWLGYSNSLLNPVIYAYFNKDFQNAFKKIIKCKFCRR
Nature of the assay: Inhibition of 3H-8-OH-DPAT binding to serotonin 5-HT1A receptors in rat brain in vitro. Details: 5-HT1A receptors in membranes from rat brain minus cerebellum; from tissue; host or cells: brain minus cerebellum of male Wistar (Mol:Wist) rats, crude membranes; species or system rat (male Wistar). The conditions noted are these: rat brain minus cerebellum membranes, 37° C., 15 min.

The mark [1] stands for this setting: read-out: 3H 8-OH DPAT binding IC50, 1 nM 3H-8-OH-DPAT.
Where [2] appears, read: 3H 8-OH DPAT binding IC50, 1 nM 3H-8-OH-DPAT.

Method: Male Wistar (Mol:Wist) rats (125-250 g) are sacrificed and the brain is dissected and weighed. The brain tissue minus cerebellum is homogenized (Ultra Turrax, 20 sec) in 10 ml of ice cold 50 nM Tris buffer pH 8.0 (at 25° C.) containing 120 mM NaCl, 4 mM CaCl2 and 4 mM MgCl2. The homogenate is centrifuged at 20,000 g for 10 min at 4° C. The pellet is homogenized in 10 ml of buffer and incubated at 37° C. for 10 min. The homogenate is centrifuged as above and the pellet is homogenized in 100 vol (w/v) ice cold buffer containing 10 μM of pargyline.
Incubation tubes kept on ice in triplicate receive 100 μl of drug solution in water (or water for total binding) and 1000 μl of tissue suspension (final tissue content corresponds to 10 mg original tissue). […] After incubation for 15 min the samples are filtered under vacuum (0-50 mBar) through Whatman GF/F filters (25 mm). The tubes are rinsed with 5 ml ice cold 0.9% NaCl which is then poured on the filters. Thereafter, the filters are washed with 2×5 ml 0.9% NaCl. The filters are placed in counting vials and 4 ml of appropriate scintillation fluid (e.g. Picofluor™ 15) are added. After shaking for 1 h and storage 2 h in the dark the content of radioactivity is determined by liquid scintillation counting. Specific binding is obtained by subtracting the nonspecific binding in the presence of 10 μM of 5-HT.
For determination of the inhibition of binding five concentrations of drugs covering 3 decades are used.
The IC50 -value is determined as the concentration, at which the binding is 50% of the total binding in control samples minus the nonspecific binding in the presence of 10 μM of 5-HT.

Consider “3-[N-(2-phenylethyl)-N-propylaminomethyl]-5-formylaminomethyl-2,3-dihydrobenzothiophene [Compound 5b]”, for which the IC50 under setting [1] was found to be 60 nM.
On the same count and under the same terms, to `CCCN(CCC)CC1CCc2ccc(NC(C)=O)cc21` (single isomer, unassigned; (+)) [Compound 8b, (+)-6-Acetylamino-1-(N,N-dipropylaminomethyl)indan] belongs 0.64 nM.
Turning to `CC(=O)Nc1ccc2c(c1)C(CN1CCCCC1)CC2` (single isomer, unassigned; (+)) [Compound 8f, (+)-6-acetylamino-1-(1-piperidinomethyl)indan], the IC50 under setting [2] was 15 nM.
As to `CCCN(CCC)CC1CCc2ccc(NC=O)cc21` (single isomer, unassigned; (+)) [Compound 10b, (+)-1-(N,N-dipropylaminomethyl)-6-formylaminoindan], under setting [2], the IC50 turned out to be 4.2 nM.
Under setting [2], `CCCN(CCC)CC1CCc2ccc(NC(=O)N(C)C)cc21` (single isomer, unassigned; (+)) [Compound 10d, (+)-6-(3,3-dimethyl-1-ureido)-1-(N,N-dipropylaminomethyl)indan] displayed an IC50 of 22 nM.
On to `CCCN(CCC)CC1CCc2ccc(NC(=O)Nc3ccc(F)cc3)cc21` (single isomer, unassigned; (+)) [Compound 10f, (+)-6-[3-(4-fluorophenyl)-1-ureido]-1-(N,N-dipropylaminomethyl)indan], for which the IC50 under setting [2] came out at 63 nM.
On the same count and under the same terms, to `CN(C)CC1CCc2ccc(NC=O)cc21` (single isomer, unassigned; (+)) [Compound 10h, (+)-1-(N,N-dimethylaminomethyl)-6-formylaminoindan] belongs 220 nM; to `CCCN(CCC)CC1CCc2cc(Cl)c(NC(C)=O)cc21` (single isomer, unassigned; (+)) [Compound 11c, (+)-6-Acetylamino-5-chloro-1-(N,N-dipropylaminomethyl)indan], 14 nM; to `CCCN(CCC)CC1CCc2ccc(NC(C)=O)cc21` (single isomer, unassigned; (-)) [Compound 8a, (-)-6-Acetylamino-1-(N,N-dipropylaminomethyl)indan], 0.64 nM.
As to `CC(=O)Nc1ccc2c(c1)C(CN1CCCCC1)CC2` (single isomer, unassigned; (-)) [Compound 8e, (-)-6-acetylamino-1-(1-piperidinomethyl)indan], the IC50 under setting [2] is 6.7 nM.
Turning to `CCCN(CCC)CC1CCc2ccc(NC=O)cc21` (single isomer, unassigned; (-)) [Compound 10a, (-)-1-(N,N-dipropylaminomethyl)-6-formylaminoindan], under setting [2], the IC50 came to 1 nM.
`CCCN(CCC)CC1CCc2ccc(NC(=O)N(C)C)cc21` (single isomer, unassigned; (-)) [Compound 10c, (-)-6-(3,3-dimethyl-1-ureido)-1-(N, N-dipropylaminomethyl)indan] yielded an IC50 under setting [2] of 8.1 nM.
Same read-out and setting: to `CCCN(CCC)CC1CCc2ccc(NC(=O)Nc3ccc(F)cc3)cc21` (single isomer, unassigned; (-)) [Compound 10e, (-)-6-[3-(4-fluorophenyl)-1-ureido]-1-(N,N-dipropylaminomethyl)indan] belongs 160 nM; to `CN(C)CC1CCc2ccc(NC=O)cc21` (single isomer, unassigned; (-)) [Compound 10g, (-)-1-(N,N-dimethylaminomethyl)-6-formylaminoindan], 48 nM.
In turn, `O=CNc1ccc2c(c1)C(CN1CCCC1)CC2` (stereo not shown) [Compound 1d, 6-Formylamino-1-(1-pyrrolidinomethyl)indan] gave an IC50 under setting [2] of 19 nM.
In turn, `CCCN(CCC)CC1CCc2ccc(NC(C)=O)c(Cl)c21` (stereo not shown) [Compound 2f, 6-Acetylamino-7-chloro-1-(N,N-dipropylaminomethyl)indan] registered an IC50 under setting [2] of 340 nM.
Under setting [2], `CCCN(CCC)CC1CCc2ccc(NS(C)(=O)=O)c(Cl)c21` (stereo not shown) [Compound 2h, 7-chloro-1-(N,N-dipropylaminomethyl)-6-(methylsulphonylamino)indan] registered a 50% inhibitory concentration (IC50) of 2000 nM.
Consider `CC(=O)Nc1ccc2c(c1)C(CN1CCCCC1)CS2` (stereo not shown) [Compound 2i, 5-acetylamino-3-(1-piperidinomethyl)-2,3-dihydrobenzothiophene], for which the concentration for half-maximal inhibition (IC50) under setting [2] came out at 6.3 nM.
Take `CCCN(CCC)CC1CCc2ccc(NC(N)=O)cc21` (stereo not shown) [Compound 3a, 1-(N,N-dipropylaminomethyl)-6-ureido-indan]: the IC50 under setting [2] was 0.56 nM.
Compound `CCCN(CCC)CC1CCc2ccc(NC(=O)Nc3ccccc3)cc21` (stereo not shown) [Compound 4a, 1-(N,N-dipropylaminomethyl)-6-(3-phenyl-1-ureido)indan] displayed a concentration for half-maximal inhibition (IC50) under setting [2] of 80 nM.
On the same count and under the same terms, to `CCCN(CCC)CC1CCc2ccc(NC(=O)NC)cc21` (stereo not shown) [Compound 4b, 1-(N,N-dipropylaminomethyl)-6-(3-methyl-1-ureido)indan] belongs 6.6 nM; to `CCCCCCCCCNC(=O)Nc1ccc2c(c1)C(CN(CCC)CCC)CC2` (stereo not shown) [Compound 4d, 1-(N,N-dipropylaminomethyl)-6-(3-nonyl-1-ureido)indan], 170 nM.
Same read-out and setting: to `CCCN(CCC)CC1CCc2ccc(NC(=O)NC3CCCC3)cc21` (stereo not shown) [Compound 4e, 6-(3-cyclopentyl-1-ureido)-1-(N,N-dipropylaminomethyl)indan] belongs 170 nM; to `CC(=O)Nc1ccc2c(c1)C(CN1CCCCC1)CC2` (stereo not shown) [Compound 5c, 6-acetylamino-1-(1-piperidinomethyl)indan], 6.5 nM.
In turn, `CCCN(CCC)CC1CCc2ccc(NCc3ccc(F)cc3)cc21` (stereo not shown) [Compound 6a, 1-(N,N-dipropylaminomethyl)-6-(4-fluorobenzylamino)indan] showed an IC50 under setting [2] of 20 nM.
Compound `CCCN(CCC)CC1CCc2cc(Br)c(NC(C)=O)cc21` (stereo not shown) [Compound 11d, 6-Acetylamino-5-bromo-1-(N,N-dipropylaminomethyl)indan] yielded an IC50 under setting [2] of 120 nM.
`CNCC1CCc2ccc(NC(C)=O)cc21` (stereo not shown) [Compound 12a, 6-Acetylamino-1-(N-methylaminomethyl)indan] yielded an IC50 under setting [2] of 25 nM.
The same measure, in the same setting: to `CC(=O)Nc1ccc2c(c1)C(CN(C)CCN1CCN(c3ccc(F)cc3)C1=O)CC2` (stereo not shown) [Compound 13e, 6-Acetylamino-1-[N-[2-[3-(4-fluorophenyl)-2-imidazolidinon-1-yl]ethyl]-N-methyl-aminomethyl]indan] belongs 27 nM.
Take `CC(=O)Nc1ccc2c(c1)C(CN(C)CCCCN1CCN(C3CCCCC3)C1=O)CC2` (stereo not shown) [Compound 13f, 6-Acetylamino-1-[N-[4-(3-cyclohexyl-2-imidazolidinon-1-yl)-1-butyl]-N-methylaminomethyl]indan]: the IC50 under setting [2] amounted to 5.1 nM.
The compound `CC(=O)Nc1ccc2c(c1)C(CN(C)CCCN1CCN(c3ccccc3)C1=O)CC2` (stereo not shown) [Compound 13g, 6-Acetylamino-1-[N-methyl-N-[3-(3-phenyl-2-imidazolidinon-1-yl)-1-propyl]aminomethyl]indan] registered an IC50 under setting [2] of 1 nM.
In turn, `CC(=O)Nc1ccc2c(c1)C(CN(C)CCCCN1CCN(c3ccc(F)cc3)C1=O)CC2` (stereo not shown) [Compound 13h, 6-Acetylamino-1-[N-[4-[3-(4-fluorophenyl)-2-imidazolidinon-1-yl]-1-butyl]-N-methylaminomethyl]indan] returned an IC50 under setting [2] of 4.8 nM.
As for `CC(=O)Nc1ccc2c(c1)C(CN(C)CCCN1CCN(C3CCCCC3)C1=O)CC2` (stereo not shown) [Compound 13i, 6-Acetylamino-1-[N-[3-(3-cyclohexyl-2-imidazolidinon-1-yl)-1-propyl]-N-methylaminomethyl]indan], the concentration for half-maximal inhibition (IC50) under setting [2] is 2.2 nM.
The compound `CC(=O)Nc1ccc2c(c1)C(CN(C)CCCCCCN1CCN(C3CCCC3)C1=O)CC2` (stereo not shown) [Compound 13j, 6-Acetylamino-1-[N-[6-(3-cyclopentyl-2-imidazolidinon-1-yl)-1-hexyl]-N-methylaminomethyl]indan] registered an IC50 under setting [2] of 3.2 nM.
`CC(=O)Nc1ccc2c(c1)C(CN(C)CCCCN1CCNC1=O)CC2` (stereo not shown) [Compound 13k, 6-Acetylamino-1-[N-[4-(2-imidazolidinon-1-yl)-1-butyl]-N-methylaminomethyl]indan] registered an IC50 under setting [2] of 790 nM.

Values taken from US5807889A, “Aminomethylindans, -benzofuranes and -benzothiophenes” (H. Lundbeck A/S, priority 1992, dated 1998).
